Earlier results on one molecule are cited in patent US20150132347A1, “TREATING INFLAMMATORY CONDITIONS AND IMPROVING ORAL HYGIENE USING METAL MODULATORS WITH METHYLSULFONYLMETHANE AS TRANSPORT ENHANCER” (priority 2012, published 2015).

SMILES strings stand for the structures.

For the data set the following is noted: in water @ 79° F.

With `CS(C)(=O)=O` [MSM, methylsulfonylmethane], the water solubility was 34 % w/v.
